Source: patent publication US12139499B2, “Heteroaryl compounds for treating Huntington's disease” (PTC THERAPEUTICS, INC., priority 2018, dated 2024)
pIC50: −log10 of the molar value.

Tested on: Endogenous Huntingtin Protein
Experiment: Endogenous Huntingtin Protein Assay (ELISA-based MSD electrochemiluminescence)
Type: cell-based
Conditions: Table 1
Outline: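 Huntingtin was captured overnight at 4 °C on plates coated with 1 μg/mL MW1 (polyQ-expanded) or MAB2166 antibody and BSA-blocked. Detection used a rabbit monoclonal and then a SULFO-TAG goat anti-rabbit antibody (0.25 μg/mL, 1 h each, room temperature). Signal was read by electrochemiluminescence.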

Structure (SMILES)	pIC50
Cc1cn2cc(-c3cnc4nc(N(C)C5CCNCC5)sc4n3)cc(C)c2n1 [Compound 288, 6-(2,8-dimethylimidazo[1,2-a]pyridin-6-yl)-N-methyl-N-(piperidin-4-yl)[1,3]thiazolo[4,5-b]pyrazin-2-amine]	6.30 to 7.00
CN(c1nc2cnc(-c3cc(F)c4nn(C)cc4c3)nc2s1)C1CC2(C)CC[C@](C)(C1)N2 (stereo partly drawn) [Compound 289, N-[(1R)-1,5-dimethyl-8-azabicyclo[3.2.1]octan-3-yl]-5-(7-fluoro-2-methyl-2H-indazol-5-yl)-N-methyl[1,3]thiazolo[5,4-d]pyrimidin-2-amine]	≥ 7.00
Cc1nc2c(C#N)cc(-c3ncc4nc(N(C)C5CC6(C)CC[C@](C)(C5)N6)sc4n3)cc2o1 (stereo partly drawn) [Compound 290, 6-(2-{[(1R)-1,5-dimethyl-8-azabicyclo[3.2.1]octan-3-yl](methyl)amino}[1,3]thiazolo[5,4-d]pyrimidin-5-yl)-2-methyl-1,3-benzoxazole-4-carbonitrile]	≥ 7.00
Cc1cn2cc(-c3ccc4nc(N(C)C5CC6(C)CCC(C)(C5)N6)sc4n3)cc(C#N)c2n1 [Compound 291, 6-(2-{[(1R,3s,5S)-1,5-dimethyl-8-azabicyclo[3.2.1]octan-3-yl](methyl)amino}[1,3]thiazolo[5,4-b]pyridin-5-yl)-2-methylimidazo[1,2-a]pyridine-8-carbonitrile]	≥ 7.00
Cc1cn2cc(-c3ccc4nc(N(C)C5CC6(C)CCC(C)(C5)N6)sc4n3)cc(F)c2n1 [Compound 292, N-[(1R,3s,5S)-1,5-dimethyl-8-azabicyclo[3.2.1]octan-3-yl]-5-(8-fluoro-2-methylimidazo[1,2-a]pyridin-6-yl)-N-methyl[1,3]thiazolo[5,4-b]pyridin-2-amine]	≥ 7.00
CN(c1nc2ccc(-c3cc(C#N)c4nn(C)cc4c3)nc2s1)C1CC2(C)CCC(C)(C1)N2 [Compound 293, 5-(2-{[(1R,3s,5S)-1,5-dimethyl-8-azabicyclo[3.2.1]octan-3-yl](methyl)amino}[1,3]thiazolo[5,4-b]pyridin-5-yl)-2-methyl-2H-indazole-7-carbonitrile]	≥ 7.00
CN(c1nc2ccc(-c3cc(F)c4nn(C)cc4c3)nc2s1)C1CC2(C)CCC(C)(C1)N2 [Compound 294, N-[(1R,3s,5S)-1,5-dimethyl-8-azabicyclo[3.2.1]octan-3-yl]-5-(7-fluoro-2-methyl-2H-indazol-5-yl)-N-methyl[1,3]thiazolo[5,4-b]pyridin-2-amine]	6.30 to 7.00
CN(c1nc2ccc(-c3cc(F)c4nn(C)cc4c3)nc2s1)C1CC2CCCC(C1)N2 (centres unmarked) [Compound 295, N-(9-azabicyclo[3.3.1]nonan-3-yl)-5-(7-fluoro-2-methyl-2H-indazol-5-yl)-N-methyl[1,3]thiazolo[5,4-b]pyridin-2-amine]	6.30 to 7.00
Cc1cn2cc(-c3cc4sc(N(C)C5CC(C)(C)NC(C)(C)C5)nc4cn3)nc2c(C)n1 [Compound 296, 6-(6,8-dimethylimidazo[1,2-a]pyrazin-2-yl)-N-methyl-N-(2,2,6,6-tetramethylpiperidin-4-yl)[1,3]thiazolo[4,5-c]pyridin-2-amine]	≥ 7.00
Cc1cn2cc(-c3cc4sc(N(C)C5CC(C)(C)NC(C)(C)C5)nc4cn3)cc2c(C)n1 [Compound 297, 6-(1,3-dimethylpyrrolo[1,2-a]pyrazin-7-yl)-N-methyl-N-(2,2,6,6-tetramethylpiperidin-4-yl)[1,3]thiazolo[4,5-c]pyridin-2-amine]	≥ 7.00
CN(c1nc2cnc(-c3cc(F)c4nn(C)cc4c3)cc2s1)C1CC2(C)CCC(C)(C1)N2 [Compound 298, N-[(1R,3s,5S)-1,5-dimethyl-8-azabicyclo[3.2.1]octan-3-yl]-6-(7-fIuoro-2-methyl-2H-indazol-5-yl)-N-methyl[1,3]thiazolo[4,5-c]pyridin-2-amine]	≥ 7.00
Cc1cn2cc(-c3cc4sc(N(C)C5CC6(C)CCC(C)(C5)N6)nc4cn3)cc(C)c2n1 [Compound 299, N-[(1R,3s,5S)-1,5-dimethyl-8-azabicyclo[3.2.1]octan-3-yl]-6-(2,8-dimethylimidazo[1,2-a]pyridin-6-yl)-N-methyl[1,3]thiazolo[4,5-c]pyridin-2-amine]	≥ 7.00
Cc1cn2cc(-c3cc4sc(N(C)C5CC6(C)CCC(C)(C5)N6)nc4cn3)ccc2n1 [Compound 300, N-[(1R,3s,5S)-1,5-dimethyl-8-azabicyclo[3.2.1]octan-3-yl]-N-methyl-6-(2-methylimidazo[1,2-a]pyridin-6-yl)[1,3]thiazolo[4,5-c]pyridin-2-amine]	≥ 7.00
Cc1nc2c(C#N)cc(-c3cc4sc(N(C)C5CC6(C)CCC(C)(C5)N6)nc4cn3)cc2o1 [Compound 301, 6-(2-{[(1R,3s,5S)-1,5-dimethyl-8-azabicyclo[3.2.1]octan-3-yl](methyl)amino)[1,3]thiazolo[4,5-c]pyridin-6-yl)-2-methyl-1,3-benzoxazole-4-carbonitrile]	≥ 7.00
CC[C@]12CC[C@](CC)(CC(N(C)c3nc4cnc(-c5cc(C#N)c6nc(C)cn6c5)nc4s3)C1)N2 (stereo partly drawn) [Compound 303, 6-(2-{[(1R,3r,5S)-1,5-diethyl-8-azabicyclo[3.2.1]octan-3-yl](methyl)amino}[1,3]thiazolo[5,4-d]pyrimidin-5-yl)-2-methylimidazo[1,2-a]pyridine-8-carbonitrile]	≥ 7.00
CC[C@]12CC[C@](CC)(CC(N(C)c3nc4cnc(-c5cc(F)c6nc(C)cn6c5)nc4s3)C1)N2 (stereo partly drawn) [Compound 304, N-[(1R,3r,5S)-1,5-diethyl-8-azabicyclo[3.2.1]octan-3-yl]-5-(8-fluoro-2-methylimidazo[1,2-a]pyridin-6-yl)-N-methyl[1,3]thiazolo[5,4-d]pyrimidin-2-amine]	6.30 to 7.00

Structure (SMILES)	pIC50
Cc1csc2nc(-c3cc4sc(N(C)C5CC(C)(C)NC(C)(C)C5)nc4cn3)cn12 [Compound 305]	6.00 to 6.30
Cc1cn2nc(-c3cc(F)c4nc(OC5CCNCC5)sc4c3)cc(C)c2n1 [Compound 306, 6-{4-fluoro-2-[(piperidin-4-yl)oxy]-1,3-benzothiazol-6-yl}-2,8-dimethylimidazo[1,2-b]pyridazine]	≥ 7.00
Cn1cc2cc(-c3cc(F)c4nc(OC5CCNCC5)sc4c3)cc(F)c2n1 [Compound 307, 4-fluoro-6-(7-fluoro-2-methyl-2H-indazol-5-yl)-2-[(piperidin-4-yl)oxy]-1,3-benzothiazole]	≥ 7.00
Cc1nn2cc(-c3cc4sc(N(C)C5CC(C)(C)NC(C)(C)C5)nc4cn3)nc2s1 [Compound 308, N-methyl-6-(2-methylimidazo[2,1-b][1,3,4]thiadiazol-6-yl)-N-(2,2,6,6-tetramethylpiperidin-4-yl)[1,3]thiazolo[4,5-c]pyridin-2-amine]	5.52 to 6.00
Cc1cn2cc(-c3cc4sc(OC5CC(C)(C)NC(C)(C)C5)nc4cn3)cc(C#N)c2n1 [Compound 309, 2-methyl-6-{2-[(2,2,6,6-tetramethylpiperidin-4-yl)oxy][1,3]thiazolo[4,5-c]pyridin-6-yl}imidazo[1,2-a]pyridine-8-carbonitrile]	≥ 7.00
Cc1cn2cc(-c3cc4sc(OC5CC(C)(C)NC(C)(C)C5)nc4cn3)cc(F)c2n1 [Compound 310, 6-(8-fluoro-2-methylimidazo[1,2-a]pyridin-6-yl)-2-[(2,2,6,6-tetramethylpiperidin-4-yl)oxy][1,3]thiazolo[4,5-c]pyridine]	≥ 7.00
Cn1cc2cc(-c3cc4sc(OC5CC(C)(C)NC(C)(C)C5)nc4cn3)cc(C#N)c2n1 [Compound 311, 2-methyl-5-{2-[(2,2,6,6-tetramethylpiperidin-4-yl)oxy][1,3]thiazolo[4,5-c]pyridin-6-yl}-2H-indazole-7-carbonitrile]	≥ 7.00
Cn1cc2cc(-c3cc4sc(OC5CC(C)(C)NC(C)(C)C5)nc4cn3)cc(F)c2n1 [Compound 312, 6-(7-fluoro-2-methyl-2H-indazol-5-yl)-2-[(2,2,6,6-tetramethylpiperidin-4-yl)oxy][1,3]thiazolo[4,5-c]pyridine]	6.30 to 7.00
Cc1cn2cc(-c3cc4sc(OC5CCNCC5)nc4cn3)cc(C#N)c2n1 [Compound 313, 2-methyl-6-{2-[(piperidin-4-yl)oxy][1,3]thiazolo[4,5-c]pyridin-6-yl}imidazo[1,2-a]pyridine-8-carbonitrile]	6.30 to 7.00
Cc1cn2cc(-c3cc4sc(OC5CCNCC5)nc4cn3)cc(F)c2n1 [Compound 314, 6-(8-fluoro-2-methylimidazo[1,2-a]pyridin-6-yl)-2-[(piperidin-4-yl)oxy][1,3]thiazolo[4,5-c]pyridine]	6.30 to 7.00
Cn1cc2cc(-c3cc4sc(OC5CCNCC5)nc4cn3)cc(C#N)c2n1 [Compound 315, 2-methyl-5-{2-[(piperidin-4-yl)oxy][1,3]thiazolo[4,5-c]pyridin-6-yl}-2H-indazole-7-carbonitrile]	6.30 to 7.00
Cn1cc2cc(-c3cc4sc(OC5CCNCC5)nc4cn3)cc(F)c2n1 [Compound 316, 6-(7-fluoro-2-methyl-2H-indazol-5-yl)-2-[(piperidin-4-yl)oxy][1,3]thiazolo[4,5-c]pyridine]	6.30 to 7.00
Cc1cn2cc(-c3cc(F)c4nc(OC5CCNCC5)sc4c3)cc(C#N)c2n1 [Compound 317, 6-{4-fluoro-2-[(piperidin-4-yl)oxy]-1,3-benzothiazol-6-yl}-2-methylimidazo[1,2-a]pyridine-8-carbonitrile]	≥ 7.00
Cn1cc2cc(-c3cc(F)c4nc(OC5CCNCC5)sc4c3)cc(C#N)c2n1 [Compound 318, 5-{4-fluoro-2-[(piperidin-4-yl)oxy]-1,3-benzothiazol-6-yl}-2-methyl-2H-indazole-7-carbonitrile]	≥ 7.00
Cc1cn2cc(-c3cc(F)c4nc(OC5CCNCC5)sc4c3)cc(C)c2n1 [Compound 319, 6-(2,8-dimethylimidazo[1,2-a]pyridin-6-yl)-4-fluoro-2-[(piperidin-4-yl)oxy]-1,3-benzothiazole]	≥ 7.00
Cc1cn2nc(-c3cc(F)c4nc(OC5CCN(C)CC5)sc4c3)cc(C)c2n1 [Compound 320, 6-{4-fluoro-2-[(1-methylpiperidin-4-yl)oxy]-1,3-benzothiazol-6-yl}-2,8-dimethylimidazo[1,2-b]pyridazine]	≥ 7.00
